Read-outs that look alike come from different tables or passages of the source.
Tests used:
[1] = tested on: viruses, immune response, leukemic lymphocytes; settings: cited from earlier work
[2] = tested on: human peripheral blood lymphocytes; experiment: PHA mitogen-induced lymphocyte proliferation using human peripheral blood lymphocytes (HPBL); format: cell-based; settings: for Cpm Incorp. +PHA: with PHA; for Cpm Incorp. +PHA / Cpm Incorp. -PHA / S.I. / fold induction at 0.036 µM / fold induction at 0.36 µM / fold induction at 3.6 µM: NPT 15392 values means of three experiments; for Cpm Incorp. -PHA: without PHA; for S.I.: NPT 15458 p ≤ 0.05; for fold induction at 0.036 µM / fold induction at 0.36 µM / fold induction at 3.6 µM: Homo sapiens, Lymphocyte, read-out: D/C (S.I. drug / control); for Immunomodulating (in vitro) lymphocyte proliferation (in words): PHA, HPBL; for Immunomodulating (in vitro) Lymph. Prolif., change: Table 11 summary
Experimental: 2. Mitogen induced lymphocyte proliferation using human peripheral blood lymphocytes (HPBL) (in vitro).
1. Twenty-two and a half grams of Ficoll 400 (Pharmacia, M.W. .perspectiveto.400,000) are dissolved in 200 ml of distilled H2 O. When most of the material is in solution, the volume is then adjusted to 250 ml with distilled H2 O.
2. Thirty-four grams of Hypaque (sodium diatrizoate, Sterling Organics, M.W. .perspectiveto.636) are dissolved in 100 ml distilled H2 O.
3. Solutions are then sterile filtered thorugh a 0.45μ millipore filter and stored in sterile containers at 4° C. away from light.
4. Working solutions are prepared by mixing 10 ml Hypaque solution with 24 ml Ficoll solution. The mixture is warmed to 25° C. with constant stirring.
1. Human blood samples are obtained by veinipuncture into heparinized 20 ml-vacutainer tubes. Fifteen to twenty ml of the undiluted blood is gently layered over an equal volume of Ficoll-Hypaque solution in sterile 50 ml polycarbonate centrifuge tubes using aseptic techniques.
2. Prepared samples are centrifuged at 25° C., 400×g for 30 mins. The fuzzy white band at the interface is aseptically aspirated into a 50 ml sterile centrifuge tube with 10-20 ml RPMI-1640. The cells are washed once at 25° C. 400×g for 10 mins. at 25° C.
3. Pelleted PBL's are resuspended in 1 ml RPMI for every 8 ml whole blood originally used and counted with a Coulter counter. Concentration is adjusted with RPMI-1640 supplemented with glutamine and antibiotics. The cells are held at room temperatue until used.
1. Lipopolysaccharide B or Phytohemagglutinin P powder is weighed and dissolved in RPMI-1640 at a concentration of 1000 μg/ml (1 mg/ml) and filter sterilized through a 0.45μ millipore filter.
2. Solutions are aliquotted (1 ml/tube) asceptically into labelled sterile cryotubes and frozen. Samples are not refrozen after partial use, but may be stored for a day or two at 4° C. Lyophilized powder is kept refrigerated at 4° C.
1. PBL's are prepared as in SOP #I-004 in serum-free RPMI-1640 supplemented with glutamine and antibiotic-antimycotic solution (GIBCO). One tenth ml per well is added to each well of 96-well microtest culture plates (CoStar Plastics) with 8-channel automatic micropipettors (Flow Labs.) fitted with sterile tips.
2. Mitogen solutions are thawed rapidly and diluted to 4 times the desired concentration with RPMI-1640.
3. Test compounds are prepared for use as per SOP #C-002, using RPMI-1640 as diluent, and diluted to 4 times the final desired concentration.
4. Fifty μl of each dilution of mitogen and/or test compound is added to 6 replicate cultures. Plain RPMI-1640 is used in the same amounts in control cultures for a total volume of 0.2 ml/well.
5. Cultures are incubated at 37° C. in a humidified 95% air, 5% CO2 atmosphere (pH .perspectiveto.6.0- 7.0) for 48 hours. The cells are then labelled with 0.5μCi/well ^3 H-TdR (Thymidine) for an additional 18 hours. the cells are harvested with a multiple automatic sample harvester (M.A.S.H.) machine. Nonadherent cells are aspirated onto glass fiber filter strips with 0.9% saline solution (10 well flushes) and the cells lysed with distilled water (20 well flushes). The strips are thoroughly air dried, residual cell deposits cut from the strips and each sample placed in 1 dram glass scintillation vials. Scintillation fluid concentrate (Scintiprep 1, Fisher Chemicals) is diluted 1:50 with scintillation grade toluene (Packard) and 1 ml added to each vial. Samples are evaluated by liquid scintillation spectroscopy and the data expressed as the means counts per minute per test group.

[3] = tested on: Influenza virus (A sub-type)
[4] = tested on: mouse spleen cells; experiment: PHA mitogen-induced lymphocyte proliferation using murine spleen cells (in vitro); format: cell-based; settings: for Cpm Incorp. +PHA: with PHA; for Cpm Incorp. -PHA: without PHA
From the text: 1. Mitogen induced lymphocyte proliferation using murine spleen cells (in vitro).

[5] = Blood levels after i.p. administration to mice; format: in vivo; settings: for Convertible to NPT 15392, Biological: Mouse: Table 11 summary; for Blood Level of NPT 15458: i.p., 360 μm/kg of compound administered
From the text: This clearly establishes the fact that NPT 15458 and NPT 15457 can produce NPT 15392 in vivo and further at least one of these derivatives gives much higher blood levels allowing for greater activity.

[6] = tested on: Vero Cells, Liver Homogenate, and Human Peripheral Blood Lymphocytes; experiment: Conversion of pro-drugs to NPT 15392 by animal cells and tissues, stated in words; format: in vitro ADME; settings: NPT 15458 compared with NPT 15457
[7] = tested on: L1210 (mouse); experiment: Inhibition of growth of L1210 mouse leukemia cells; format: cell-based; settings: 10 μg/ml
Experimental: (§1) Effect of Erythro-9-(2-Acetoxy-3-Nonyl)-Hypoxanthine on Growth of Tumor (Leukemia) Cells In Vivo
The activity of one of these agents, NPT 15458 as inhibitors of the growth of abnormal lymphocytes has been determined. […] A 40% inhibition of L-1210 cells was effected by NPT 15458 at 10 μg/ml.

[8] = tested on: 8068 (Human); experiment: Inhibition of growth of 8068 human tumor (leukemia) cells; format: cell-based; settings: 10 μg/ml
From the text: as §1

[9] = Mus musculus, Lymphocyte, 10 ng/ml, read-out: D/C (S.I. drug / control)

Structure (SMILES)	Cpm Incorp. +PHA ([2]; 0.036 n moles/ml)	Cpm Incorp. -PHA ([2]; 0.036 n moles/ml) [Cpm]	S.I. ([2]; 0.036 n moles/ml)	Cpm Incorp. +PHA ([2]; 0.36 n moles/ml)	Cpm Incorp. -PHA ([2]; 0.36 n moles/ml) [Cpm]	S.I. ([2]; 0.36 n moles/ml)	Cpm Incorp. +PHA ([2]; 3.6 n moles/ml)	Cpm Incorp. -PHA ([2]; 3.6 n moles/ml) [Cpm]	S.I. ([2]; 3.6 n moles/ml)	fold induction at 0.036 µM ([2]; 0.036 n moles/ml)	fold induction at 0.36 µM ([2]; 0.36 n moles/ml)	fold induction at 3.6 µM ([2]; 3.6 n moles/ml)	Immunomodulating (in vitro) lymphocyte proliferation (in words) [2]	Immunomodulating (in vitro) Lymph. Prolif., change [2]	% Inhibition of Influenza Virus Growth ([3]; 3.6 nmoles/ml) [%]	% Inhibition of Influenza Virus Growth ([3]; 10.8 nmoles/ml) [%]	% Inhibition of Influenza Virus Growth ([3]; 36 nmoles/ml) [%]	% Inhibition of Influenza Virus Growth ([3]; .36 nmoles/ml) [%]	Antiviral activity in vitro (in words) [3]	S.I. (stimulation index) ([4]; 10 ng/ml)	also measured
CCCCCC[C@H]([C@H](C)O)n1cnc2c(=O)[nH]cnc21 (relative stereo) [NPT 15392, erythro-9-(2-hydroxy-3-nonyl)-hypoxanthine, reference compound]	59,167 Cpm	297	199	69,057 Cpm	577	120	67,328 Cpm	381	176	1.27	0.76	1.13	Yes	12-27%	30	42	73	20	Yes	588	Previously demonstrated activity (in words) [1]: antiviral immunomodulating and anti-tumor activity; Cpm Incorp. +PHA ([4]; 10 ng/ml): 68,804 Cpm; Cpm Incorp. -PHA ([4]; 10 ng/ml): 117 Cpm; fold induction at 0.01 µg/mL [4, 9]: 1.25
CCCCCC[C@H]([C@H](C)OC(=O)CCC(=O)O)n1cnc2c(=O)[nH]cnc21 (relative stereo) [NPT 15457, Erythro-9-(2-Succinoxy-3-Nonyl) Hypoxanthine]	59,569 Cpm	240	250	59,689 Cpm	228	261	52,149 Cpm	232	224	1.28	1.33	1.14	effectve in augmenting PHA induced lymphocyte proliferation and Yes	14-28%	0	18	13	18			Convertible to NPT 15392, Biological: Mouse [5]: 25
CCCCCC[C@H]([C@H](C)OC(C)=O)n1cnc2c(=O)[nH]cnc21 (relative stereo) [NPT 15458, erythro-9-(2-Acetoxy-3-Nonyl)-Hypoxanthine]	59,898 Cpm	214	280	63,858 Cpm	221	289	69,055 Cpm	238	290	1.43	1.48	1.48	effectve in augmenting PHA induced lymphocyte proliferation and Yes	43-48%	40	80	88	26	Yes	436	Convertible to NPT 15392, Biological: Mouse [5]: 100; Blood Level of NPT 15458 ([5]; animal # 1): 0 μm/ml × 10^3; Blood Level of NPT 15458 ([5]; animal # 2): 0 μm/ml × 10^3; Conversion to NPT 15392 (in words) [6]: appears to occur to a greater extent than the conversion of NPT 15457 to NPT 15392; inhibition at 10 µg/mL [7]: 40%; inhibition at 10 µg/mL [8]: 32%; Cleavage to NPT 15392 (in words) ([3]; hemadsorption assay): almost completely cleaved to NPT 15392; Cpm Incorp. +PHA ([4]; 10 ng/ml): 66,800 Cpm; Cpm Incorp. -PHA ([4]; 10 ng/ml): 153 Cpm; S.I. (stimulation index) ([4]; 50 ng/ml): 589; Cpm Incorp. +PHA ([4]; 50 ng/ml): 81,297 Cpm; Cpm Incorp. -PHA ([4]; 50 ng/ml): 138 Cpm; fold induction at 0.01 µg/mL [4, 9]: 0.93; fold induction at 0.05 µg/mL ([4]; Mus musculus, Lymphocyte, 50 ng/ml, read-out: D/C (S.I. drug / control)): 1.25; activation at 50 µg/mL ([4]; Mus musculus, Lymphocyte, 50 μg/ml, read-out: Increase of PHA induced lymphocyte proliferation): ~25%

Reference: patent US4457919A, “Method of imparting immunomodulating, antiviral or antitumor activity” (Newport Pharmaceutical International, Inc., priority 1982, dated 1984)
